The results in this text go back to patent publication US8507508B2, “Solid forms of pemetrexed” (Dr. Reddy's Laboratories Limited, priority 2007, dated 2013).

The nature of the data set: Physical stability on storage, checked by retention of the original XRPD pattern. It counts as physicochemical. The text has this:
All XRPD data reported herein were obtained using a Bruker or PANalytical AXS D8 Advance Powder X-ray Diffractometer at Cu Kα radiation, having the wavelength 1.5418 Å. Since some margin of error is possible in the assignment of 2 theta angles and d-spacings, the preferred method of comparing X-ray powder diffraction patterns in order to identify a particular crystalline form is to overlay the X-ray powder diffraction pattern of the unknown form over the X-ray powder diffraction pattern of a known form. For all analytical data discussed in this application, it should be kept in mind that specific values depend on many factors, e.g., specific instrument, sample preparation and individual operator.
The obtained sample kept in a sealed polythene bag at a temperature of 20° C. to 25° C. for a period of 58 days to check the physical stability.
The obtained sample kept in a sealed polythene bag at a temperature of 20 to 25° C. for a period of 7 days to check the physical stability.
The obtained sample kept in a sealed polythene bag at a temperature of 20 to 25° C. for a period of 3 days to check the physical stability.
The sample was kept in a petri dish and stored at room temperature for a period of 24 hours to check the physical stability.

For `Nc1nc2[nH]cc(CCc3ccc(C(=O)N[C@@H](CCC(=O)[O-])C(=O)[O-])cc3)c2c(=O)[nH]1.[Na+].[Na+]` [Example 4, Amorphous Pemetrexed Disodium], the “physical stability (XRPD)” value was “retain its polymorphic form” (petri dish, room temperature, 24 hours) and “retain its polymorphic form” (sealed polythene bag, 20 to 25° C., 3 days).
For `Nc1nc2[nH]cc(CCc3ccc(C(=O)N[C@@H](CCC(=O)[O-])C(=O)[O-])cc3)c2c(=O)[nH]1.[Na+].[Na+]` [Example 1, Amorphous Pemetrexed Disodium], under “sealed polythene bag, 20° C. to 25° C., 58 days”, the “physical stability (XRPD and physical observation)” value is reported as “retain its amorphous nature”.
In the case of `Nc1nc2[nH]cc(CCc3ccc(C(=O)N[C@@H](CCC(=O)[O-])C(=O)[O-])cc3)c2c(=O)[nH]1.[Na+].[Na+]` [Example 3, Amorphous Pemetrexed Disodium], where the note is “sealed polythene bag, 20 to 25° C., 7 days”, the “physical stability (XRPD)” value is listed as “retain its amorphous form”.
